Experimental data from the NIST ThermoML archive (doi:10.1021/acs.jced.5b00760).
Numbers after ± are expanded uncertainties.

Conditions: Liquid, Closed cell (Static) method

c1ccccc1 [benzene]
Conditions | vapor or sublimation pressure [kPa]
303.15 K | 15.63 ± 0.6
313.15 K | 24.45 ± 0.6
323.15 K | 36.6 ± 0.75
333.15 K | 53.12 ± 1.1
343.15 K | 74.82 ± 1.5

c1ccsc1 [thiophene]
Conditions | vapor or sublimation pressure [kPa]
303.15 K | 13.29 ± 0.6
308.15 K | 16.61 ± 0.6
313.15 K | 20.59 ± 0.6
318.15 K | 25.31 ± 0.6
323.15 K | 30.87 ± 0.64
328.15 K | 37.4 ± 0.77
333.15 K | 44.98 ± 0.92

Cc1ccccc1 [toluene]
Conditions | vapor or sublimation pressure [kPa]
323.16 K | 12.29 ± 0.6
325.16 K | 13.37 ± 0.6
327.15 K | 14.53 ± 0.6
329.15 K | 15.77 ± 0.6
332.15 K | 17.8 ± 0.6
334.25 K | 19.35 ± 0.6
337.65 K | 22.08 ± 0.6
339.65 K | 23.83 ± 0.6
342.3 K | 26.32 ± 0.6
342.45 K | 26.47 ± 0.6

O [water]
Conditions | vapor or sublimation pressure [kPa]
322.13 K | 11.12 ± 0.6
329.07 K | 16.75 ± 0.6
337.68 K | 24.18 ± 0.6
341.81 K | 29.68 ± 0.61
347.45 K | 37.91 ± 0.78
350.9 K | 43.56 ± 0.89
355.11 K | 51.68 ± 1.1
358.38 K | 58.49 ± 1.2
